target: CDK2 (UniProt P24941); experiment: Enzyme Assay; conditions: not given

| Compound | Ki |
| --- | --- |
| Nc1nc(Nc2ccc(S(=O)(=O)NCC3CCNCC3)cc2)sc1C(=O)c1c(F)cccc1F | 13 nM |
| Cc1cc(F)c(C(=O)c2sc(Nc3ccc(S(=O)(=O)NCc4ccc(C)o4)cc3)nc2N)c(F)c1 | < 10 nM |
| CC(C)(O)CCCCNS(=O)(=O)c1ccc(Nc2nc(N)c(C(=O)c3c(F)cccc3F)s2)cc1 | 0.48 nM |
| CC(C)CCCCNS(=O)(=O)c1ccc(Nc2nc(N)c(C(=O)c3c(F)cccc3F)s2)cc1 | 3.7 nM |

Second part, the compound after the results:

| Ki | Compound |
| --- | --- |
| 3.6 nM | Nc1nc(Nc2ccc(S(=O)(=O)NCCCc3ccccc3)cc2)sc1C(=O)c1c(F)cccc1F |
| 4.6 nM | Nc1nc(Nc2ccc(S(=O)(=O)NCc3cc4ccccc4o3)cc2)sc1C(=O)c1c(F)cccc1F |
| 6.9 nM | Cn1cncc1CNS(=O)(=O)c1ccc(Nc2nc(N)c(C(=O)c3c(F)cccc3F)s2)cc1 |
| 4.9 nM | CCOC(=O)CNS(=O)(=O)c1ccc(Nc2nc(N)c(C(=O)c3c(F)cccc3F)s2)cc1 |
| < 5 nM | CCCOCCNS(=O)(=O)c1ccc(Nc2nc(N)c(C(=O)c3c(F)cccc3F)s2)cc1 |
| < 10 nM | Nc1nc(Nc2ccc(S(=O)(=O)NCCc3cccc(Cl)c3)cc2)sc1C(=O)c1c(F)cccc1F |

same assay, conditions: concentration not given here

| Compound | inhibition |
| --- | --- |
| Nc1nc(Nc2ccc(S(=O)(=O)N3CCN(c4ccc(F)cc4)CC3)cc2)sc1C(=O)c1c(F)cccc1F | 37% |
| Nc1nc(Nc2ccc(S(=O)(=O)N3CCN(CCOCCO)CC3)cc2)sc1C(=O)c1c(F)cccc1F | -1% |
| CN1CCC(N(C)S(=O)(=O)c2ccc(Nc3nc(N)c(C(=O)c4c(F)cccc4F)s3)cc2)CC1 | 9% |
| Nc1nc(Nc2ccc(S(=O)(=O)N3CCOCC3)cc2)sc1C(=O)c1c(F)cccc1F | 27% |
| Nc1nc(Nc2ccc(S(=O)(=O)N(CCO)CCO)cc2)sc1C(=O)c1c(F)cccc1F | -1% |
| Nc1nc(Nc2ccc(S(=O)(=O)N3CCN(CCN4CCOCC4)CC3)cc2)sc1C(=O)c1c(F)cccc1F | 11% |
| NC(=O)C1CCN(S(=O)(=O)c2ccc(Nc3nc(N)c(C(=O)c4c(F)cccc4F)s3)cc2)CC1 | 40% |
| CCN(CC)CCN(C)S(=O)(=O)c1ccc(Nc2nc(N)c(C(=O)c3c(F)cccc3F)s2)cc1 | 27% |
| CN(CCO)S(=O)(=O)c1ccc(Nc2nc(N)c(C(=O)c3c(F)cccc3F)s2)cc1 | 28% |
| CN(CCC#N)S(=O)(=O)c1ccc(Nc2nc(N)c(C(=O)c3c(F)cccc3F)s2)cc1 | 27% |
| C=CCN1CCN(S(=O)(=O)c2ccc(Nc3nc(N)c(C(=O)c4c(F)cccc4F)s3)cc2)CC1 | 6% |
| CN(CCc1ccncc1)S(=O)(=O)c1ccc(Nc2nc(N)c(C(=O)c3c(F)cccc3F)s2)cc1 | 19% |
| CN(CCCCCCO)S(=O)(=O)c1ccc(Nc2nc(N)c(C(=O)c3c(F)cccc3F)s2)cc1 | 28% |
| Nc1nc(Nc2ccc(S(=O)(=O)N3CCN(CC(=O)N4CCCC4)CC3)cc2)sc1C(=O)c1c(F)cccc1F | 14% |
| CN(C)CCN(C)S(=O)(=O)c1ccc(Nc2nc(N)c(C(=O)c3c(F)cccc3F)s2)cc1 | 26% |
| CN1CCN(S(=O)(=O)c2ccc(Nc3nc(N)c(C(=O)c4c(F)cccc4F)s3)cc2)CC1 | 18% |
| COCCN(CCOC)S(=O)(=O)c1ccc(Nc2nc(N)c(C(=O)c3c(F)cccc3F)s2)cc1 | 8% |
| Nc1nc(Nc2ccc(S(=O)(=O)N3CCC(CCO)CC3)cc2)sc1C(=O)c1c(F)cccc1F | 21% |

The remaining lines, values ahead:

| inhibition | Compound |
| --- | --- |
| 23% | Nc1nc(Nc2ccc(S(=O)(=O)N3CCSCC3)cc2)sc1C(=O)c1c(F)cccc1F |
| 24% | CCN(CCO)S(=O)(=O)c1ccc(Nc2nc(N)c(C(=O)c3c(F)cccc3F)s2)cc1 |
| 8% | N#CCCN(C1CC1)S(=O)(=O)c1ccc(Nc2nc(N)c(C(=O)c3c(F)cccc3F)s2)cc1 |
| 30% | Nc1nc(Nc2ccc(S(=O)(=O)N3CCCC(CO)C3)cc2)sc1C(=O)c1c(F)cccc1F (stereo unspecified) |
| 16% | CN(CCc1ccccn1)S(=O)(=O)c1ccc(Nc2nc(N)c(C(=O)c3c(F)cccc3F)s2)cc1 |
| 15% | CN(CC(O)CO)S(=O)(=O)c1ccc(Nc2nc(N)c(C(=O)c3c(F)cccc3F)s2)cc1 (stereo unspecified) |
| 4% | COCCN(C)S(=O)(=O)c1ccc(Nc2nc(N)c(C(=O)c3c(F)cccc3F)s2)cc1 |
| 22% | CN1CCC(N(C)S(=O)(=O)c2ccc(Nc3nc(N)c(C(=O)c4c(F)cccc4F)s3)cc2)C1 (stereo unspecified) |
| 20% | CN(CCC1OCCO1)S(=O)(=O)c1ccc(Nc2nc(N)c(C(=O)c3c(F)cccc3F)s2)cc1 |
| 21% | CCN(CC)CCCN(C)S(=O)(=O)c1ccc(Nc2nc(N)c(C(=O)c3c(F)cccc3F)s2)cc1 |
| 12% | CN(Cc1cccnc1)S(=O)(=O)c1ccc(Nc2nc(N)c(C(=O)c3c(F)cccc3F)s2)cc1 |
| 9% | CN(CCc1ccccc1)S(=O)(=O)c1ccc(Nc2nc(N)c(C(=O)c3c(F)cccc3F)s2)cc1 |
| 18% | COC(=O)CN(C)S(=O)(=O)c1ccc(Nc2nc(N)c(C(=O)c3c(F)cccc3F)s2)cc1 |

Reference: the Kinase Knowledgebase extract (Sharma et al. 2016)
